Laboratory results as given in article PMC12446476 (Nature Communications, 2025).
≈ marks a conversion by molar mass, not a printed value. Like-named read-outs stand apart in the source and are kept apart here.

System: non-gonococcal Neisseria
Experiment: MIC determination for non-gonococcal Neisseria, agar dilution
Assay type: cell-based, Neisseria species
Conditions: read-out: Minimum inhibitory concentration
From the text: The 2024 WHO N. gonorrhoeae reference strains were used for quality control. Only whole MIC doubling dilutions are reported. Clinical breakpoints or the epidemiological cutoff (ECOFF, to indicate azithromycin resistance) from EUCAST (v14.0, https://www.eucast.org/clinical_breakpoints) were used to classify isolates as antimicrobial susceptible or resistant. […] Two times the standard inoculum defined by CLSI was used to establish consistent growth in untreated control samples for some strains. In vitro time-kill assays were performed according to CLSI guidelines[65] using Columbia Broth (BD Difco) supplemented with 1% IsoVitaleX Enrichment (BD). Viable bacterial counts were generated by plating 10-fold serially diluted samples on GC agar plates containing 1% IsoVitaleX Enrichment (BD).

**Q.** What does the source list for Cc1c(CN(C)C(=O)/C=C/c2cnc3c(c2)N[C@H](C)[C@H](O)C(=O)N3)oc2ccccc12 [Debio 1453]?
**A.** MIC (Neisseria mucosa 4, Replicate 1): 1 µg/mL (≈ 2.38 µM); MIC (Neisseria mucosa 4, Replicate 2): 1 µg/mL (≈ 2.38 µM); MIC (Neisseria mucosa 4, Replicate 3): 1 µg/mL (≈ 2.38 µM); MIC (Neisseria mucosa 5, Consensus): 0.5 µg/mL (≈ 1.19 µM); MIC (Neisseria mucosa 5, Replicate 1): 0.25 µg/mL (≈ 0.595 µM); MIC (Neisseria mucosa 5, Replicate 2): 0.5 µg/mL (≈ 1.19 µM); MIC (Neisseria mucosa 5, Replicate 3): 0.5 µg/mL (≈ 1.19 µM); MIC (Neisseria mucosa 6, Consensus): 0.5 µg/mL (≈ 1.19 µM); MIC (Neisseria mucosa 6, Replicate 1): 0.25 µg/mL (≈ 0.595 µM); MIC (Neisseria mucosa 6, Replicate 2): 0.5 µg/mL (≈ 1.19 µM); MIC (Neisseria mucosa 6, Replicate 3): 0.5 µg/mL (≈ 1.19 µM); MIC (Neisseria mucosa 7, Consensus): 0.25 µg/mL (≈ 0.595 µM); MIC (Neisseria mucosa 7, Replicate 1): 0.25 µg/mL (≈ 0.595 µM); MIC (Neisseria mucosa 7, Replicate 2): 0.25 µg/mL (≈ 0.595 µM); MIC (Neisseria mucosa 7, Replicate 3): 0.25 µg/mL (≈ 0.595 µM); MIC (Neisseria mucosa 8, Consensus): 1 µg/mL (≈ 2.38 µM); MIC (Neisseria mucosa 8, Replicate 1): 1 µg/mL (≈ 2.38 µM); MIC (Neisseria mucosa 8, Replicate 2): 1 µg/mL (≈ 2.38 µM); MIC (Neisseria mucosa 8, Replicate 3): 1 µg/mL (≈ 2.38 µM); MIC (Neisseria mucosa 9, Consensus): 2 µg/mL (≈ 4.76 µM); MIC (Neisseria mucosa 9, Replicate 1): 1 µg/mL (≈ 2.38 µM); MIC (Neisseria mucosa 9, Replicate 2): 2 µg/mL (≈ 4.76 µM); MIC (Neisseria mucosa 9, Replicate 3): 2 µg/mL (≈ 4.76 µM); MIC (Neisseria perflava 1, Consensus): 0.25 µg/mL (≈ 0.595 µM); MIC (Neisseria perflava 1, Replicate 1): 0.25 µg/mL (≈ 0.595 µM); MIC (Neisseria perflava 1, Replicate 2): 0.25 µg/mL (≈ 0.595 µM); MIC (Neisseria perflava 1, Replicate 3): 0.25 µg/mL (≈ 0.595 µM); MIC (Neisseria perflava 2, Consensus): 0.032 µg/mL (≈ 0.0761 µM); MIC (Neisseria perflava 2, Replicate 1): 0.032 µg/mL (≈ 0.0761 µM); MIC (Neisseria perflava 2, Replicate 2): 0.032 µg/mL (≈ 0.0761 µM); MIC (Neisseria perflava 2, Replicate 3): 0.032 µg/mL (≈ 0.0761 µM); MIC (Neisseria perflava 3, Consensus): 0.032 µg/mL (≈ 0.0761 µM); MIC (Neisseria perflava 3, Replicate 1): 0.032 µg/mL (≈ 0.0761 µM); MIC (Neisseria perflava 3, Replicate 2): 0.032 µg/mL (≈ 0.0761 µM); MIC (Neisseria perflava 3, Replicate 3): 0.032 µg/mL (≈ 0.0761 µM); MIC (Neisseria perflava 4, Consensus): 0.25 µg/mL (≈ 0.595 µM); MIC (Neisseria perflava 4, Replicate 1): 0.25 µg/mL (≈ 0.595 µM); MIC (Neisseria perflava 4, Replicate 2): 0.25 µg/mL (≈ 0.595 µM); MIC (Neisseria perflava 4, Replicate 3): 0.25 µg/mL (≈ 0.595 µM); MIC (Neisseria perflava 6, Consensus): 0.25 µg/mL (≈ 0.595 µM); MIC (Neisseria perflava 6, Replicate 1): 0.25 µg/mL (≈ 0.595 µM); MIC (Neisseria perflava 6, Replicate 2): 0.5 µg/mL (≈ 1.19 µM); MIC (Neisseria perflava 6, Replicate 3): 0.25 µg/mL (≈ 0.595 µM); MIC (Neisseria perflava 7, Consensus): 0.5 µg/mL (≈ 1.19 µM); MIC (Neisseria perflava 7, Replicate 1): 0.5 µg/mL (≈ 1.19 µM); MIC (Neisseria perflava 7, Replicate 2): 0.5 µg/mL (≈ 1.19 µM); MIC (Neisseria perflava 7, Replicate 3): 0.5 µg/mL (≈ 1.19 µM); MIC (Neisseria perflava 8, Consensus): 0.25 µg/mL (≈ 0.595 µM); MIC (Neisseria perflava 8, Replicate 1): 0.25 µg/mL (≈ 0.595 µM); MIC (Neisseria perflava 8, Replicate 2): 0.5 µg/mL (≈ 1.19 µM); MIC (Neisseria perflava 8, Replicate 3): 0.25 µg/mL (≈ 0.595 µM); MIC (Neisseria perflava 9, Consensus): 0.5 µg/mL (≈ 1.19 µM); MIC (Neisseria perflava 9, Replicate 1): 0.25 µg/mL (≈ 0.595 µM); MIC (Neisseria perflava 9, Replicate 2): 0.5 µg/mL (≈ 1.19 µM); MIC (Neisseria perflava 9, Replicate 3): 0.5 µg/mL (≈ 1.19 µM); MIC (Neisseria perflava 10, Consensus): 0.5 µg/mL (≈ 1.19 µM); MIC (Neisseria perflava 10, Replicate 1): 0.5 µg/mL (≈ 1.19 µM); MIC (Neisseria perflava 10, Replicate 2): 0.5 µg/mL (≈ 1.19 µM); MIC (Neisseria perflava 10, Replicate 3): 0.5 µg/mL (≈ 1.19 µM); MIC (Neisseria perflava 11, Consensus): 1 µg/mL (≈ 2.38 µM); MIC (Neisseria perflava 11, Replicate 1): 1 µg/mL (≈ 2.38 µM); MIC (Neisseria perflava 11, Replicate 2): 1 µg/mL (≈ 2.38 µM); MIC (Neisseria perflava 11, Replicate 3): 0.5 µg/mL (≈ 1.19 µM); MIC (Neisseria perflava 12, Consensus): 0.5 µg/mL (≈ 1.19 µM); MIC (Neisseria perflava 12, Replicate 1): 0.5 µg/mL (≈ 1.19 µM); MIC (Neisseria perflava 12, Replicate 2): 0.5 µg/mL (≈ 1.19 µM); MIC (Neisseria perflava 12, Replicate 3): 0.5 µg/mL (≈ 1.19 µM); MIC (Neisseria perflava 13, Consensus): 0.25 µg/mL (≈ 0.595 µM); MIC (Neisseria perflava 13, Replicate 1): 0.25 µg/mL (≈ 0.595 µM); MIC (Neisseria perflava 13, Replicate 2): 0.25 µg/mL (≈ 0.595 µM); MIC (Neisseria perflava 13, Replicate 3): 0.25 µg/mL (≈ 0.595 µM); MIC (Neisseria perflava 14, Consensus): 0.5 µg/mL (≈ 1.19 µM); MIC (Neisseria perflava 14, Replicate 1): 0.5 µg/mL (≈ 1.19 µM); MIC (Neisseria perflava 14, Replicate 2): 0.5 µg/mL (≈ 1.19 µM); MIC (Neisseria perflava 14, Replicate 3): 0.5 µg/mL (≈ 1.19 µM); MIC (Neisseria perflava 15, Consensus): 0.5 µg/mL (≈ 1.19 µM); MIC (Neisseria perflava 15, Replicate 1): 0.5 µg/mL (≈ 1.19 µM); MIC (Neisseria perflava 15, Replicate 2): 0.5 µg/mL (≈ 1.19 µM); MIC (Neisseria perflava 15, Replicate 3): 0.5 µg/mL (≈ 1.19 µM); MIC (Neisseria perflava 16, Consensus): 0.5 µg/mL (≈ 1.19 µM); MIC (Neisseria perflava 16, Replicate 1): 0.5 µg/mL (≈ 1.19 µM); MIC (Neisseria perflava 16, Replicate 2): 0.5 µg/mL (≈ 1.19 µM); MIC (Neisseria perflava 16, Replicate 3): 1 µg/mL (≈ 2.38 µM); MIC (Neisseria perflava 17, Consensus): 0.5 µg/mL (≈ 1.19 µM); MIC (Neisseria perflava 17, Replicate 1): 0.5 µg/mL (≈ 1.19 µM); MIC (Neisseria perflava 17, Replicate 2): 0.5 µg/mL (≈ 1.19 µM); MIC (Neisseria perflava 17, Replicate 3): 0.5 µg/mL (≈ 1.19 µM); MIC (Neisseria perflava 18, Replicate 2): 0.25 µg/mL (≈ 0.595 µM); MIC (Neisseria perflava 19, Consensus): 1 µg/mL (≈ 2.38 µM); MIC (Neisseria perflava 19, Replicate 1): 1 µg/mL (≈ 2.38 µM); MIC (Neisseria perflava 19, Replicate 2): 1 µg/mL (≈ 2.38 µM); MIC (Neisseria perflava 19, Replicate 3): 1 µg/mL (≈ 2.38 µM); MIC (Neisseria perflava 20, Consensus): 0.5 µg/mL (≈ 1.19 µM); MIC (Neisseria perflava 20, Replicate 1): 0.5 µg/mL (≈ 1.19 µM); MIC (Neisseria perflava 20, Replicate 2): 0.5 µg/mL (≈ 1.19 µM); MIC (Neisseria perflava 20, Replicate 3): 0.5 µg/mL (≈ 1.19 µM); MIC (Neisseria perflava 21, Consensus): 1 µg/mL (≈ 2.38 µM); MIC (Neisseria perflava 21, Replicate 1): 1 µg/mL (≈ 2.38 µM); MIC (Neisseria perflava 21, Replicate 2): 1 µg/mL (≈ 2.38 µM); MIC (Neisseria perflava 21, Replicate 3): 1 µg/mL (≈ 2.38 µM); MIC (Neisseria perflava 22, Consensus): 1 µg/mL (≈ 2.38 µM); MIC (Neisseria perflava 22, Replicate 1): 1 µg/mL (≈ 2.38 µM); MIC (Neisseria perflava 22, Replicate 2): 1 µg/mL (≈ 2.38 µM); MIC (Neisseria perflava 22, Replicate 3): 1 µg/mL (≈ 2.38 µM); MIC (Neisseria perflava 23, Consensus): 0.5 µg/mL (≈ 1.19 µM); MIC (Neisseria perflava 23, Replicate 1): 0.5 µg/mL (≈ 1.19 µM); MIC (Neisseria perflava 23, Replicate 2): 0.5 µg/mL (≈ 1.19 µM); MIC (Neisseria perflava 23, Replicate 3): 0.5 µg/mL (≈ 1.19 µM); MIC (Neisseria perflava 25, Consensus): 1 µg/mL (≈ 2.38 µM); MIC (Neisseria perflava 25, Replicate 1): 1 µg/mL (≈ 2.38 µM); MIC (Neisseria perflava 25, Replicate 2): 1 µg/mL (≈ 2.38 µM)
